Source: patent US10179123B2, “2-aryl- and 2-arylalkyl-benzimidazoles as mIDH1 inhibitors” (BAYER PHARMA AKTIENGESELLSCHAFT, priority 2015, dated 2019)

Key:
IDH1 R132H enzyme = IDH1 R132H enzyme (Homo sapiens (Human), UniProt O75874, R132H); test: Mutant IDH1 R132H biochemical assay; settings: NADPH consumption, luminescent readout; 1.5 nM enzyme, 1 μM NADPH, 250 μM α-KG, 30 minutes, 32° C.
Description: NADPH consumption was measured by luminescent readout. […] The final DMSO concentration was 2.4%. […] Luminescence was measured on a luminescent reader (10 seconds measuring time, 1 second integration period, 30% sensitivity). The decrease in luminescence is proportional to mIDH1 activity. IC50 values are determined by interpolation from plots of relative luminescence versus inhibitor concentration.

[1] = molecular target: mutated isocitrate dehydrogenase (mIDH) protein, LN229 R132H cells (Homo sapiens (Human), UniProt O75874, R132H); test: Mutant IDH1 cellular assay (2-HG in medium of LN229 R132H cells); assay type: cell-based; settings: 2-HG levels in medium, 24 hours
Chain of mutated isocitrate dehydrogenase (mIDH) protein, LN229 R132H cells (O75874 whole entry R132H): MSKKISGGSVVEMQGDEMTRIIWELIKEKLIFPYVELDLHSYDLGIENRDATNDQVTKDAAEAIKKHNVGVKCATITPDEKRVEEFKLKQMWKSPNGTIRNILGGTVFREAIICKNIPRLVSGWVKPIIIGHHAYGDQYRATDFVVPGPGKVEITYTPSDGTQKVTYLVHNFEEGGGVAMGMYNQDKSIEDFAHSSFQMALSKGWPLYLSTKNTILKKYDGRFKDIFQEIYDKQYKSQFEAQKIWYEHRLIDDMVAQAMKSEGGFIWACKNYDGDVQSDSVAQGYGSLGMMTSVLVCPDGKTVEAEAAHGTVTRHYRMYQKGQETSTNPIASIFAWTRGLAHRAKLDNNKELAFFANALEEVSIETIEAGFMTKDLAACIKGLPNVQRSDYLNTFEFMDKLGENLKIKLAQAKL
Description: Mutant IDH1 Cellular Assay
They were harvested by trypsin and seeded into 96-well plates. Cells were incubated overnight at 37° C. in 5% CO2. The next day test compounds were added to each cell well. The final concentration of DMSO was 0.1% and DMSO controls were included. The plates were then placed in an incubator for 24 hours.
2-HG was measured according to Balss et al. (Acta Neuropathol (2012) 124: 883-891). Briefly, HClO4 was added to each well and the plates were centrifuged. Aliquots are removed and incubated with hydroxyglutarate dehydrogenase (HGDH), diaphorase, NAD+, and resazurin. The conversion of resazurin to resorufin was detected by fluorescence spectroscopy at Ex 540 nm Em 600 nm. The increase in fluorescence is proportional to 2-HG production. IC50 values are determined by interpolation from plots of relative fluorescence vs inhibitor concentration.

Chain of IDH1 R132H enzyme (O75874 whole entry R132H): as above

Which results are given for `CC(C)Oc1ccc(Cc2nc3cc(C(=O)O)ccc3n2[C@H]2C[C@@H](C)CC(C)(C)C2)cc1` (stereo in doubt) [Example 2-32-2]?
IC50 (IDH1 R132H enzyme): 300 nM; IC50 [1]: 2500 nM

With `CC(C)c1ccc(Cc2nc3cc(C(=O)O)ccc3n2[C@@H]2C[C@H](C)CC(C)(C)C2)cc1` (stereo in doubt) [Example 2-33] as the molecule, how does the IC50 (IDH1 R132H enzyme) read?
The IC50 was 50 nM.

And the IC50 [1]?
Its IC50 is 350 nM.
